Measurements taken from patent US20150089682A1, “ALS Inhibitor Herbicide Tolerant B. Napus Mutants” (priority 2012, published 2015).
Positions count from the first letter of the chain named. Names and notes keep the numbering of the source.

B1: P197S: Arabidopsis thaliana P197S-mutant ALS expressed in Escherichia coli, crude protein extract (protein, UniProt P17597 56-670, looked up, variant P197S)
Acetolactate synthase, …: SSSPSSISAVLNTTTNVTTTPSPTKPTKPETFISRFAPDQPRKGADILVEALERQGVETVFAYPGGASMEIHQALTRSSSIRNVLPRHEQGGVFAAEGYARSSGKPGICIATSGPGATNLVSGLADALLDSVPLVAITGQVSRRMIGTDAFQETPIVEVTRSITKHNYLVMDVEDIPRIIEEAFFLATSGRPGPVLVDVPKDIQQQLAIPNWEQAMRLPGYMSRMPKPPEDSHLEQIVRLISESKKPVLYVGGGCLNSSDELGRFVELTGIPVASTLMGLGSYPCDDELSLHMLGMHGTVYANYAVEHSDLLLAFGVRFDDRVTGKLEAFASRAKIVHIDIDSAEIGKNKTPHVSVCGDVKLALQGMNKVLENRAEELKLDFGVWRNELNVQKQKFPLSFKTFGEAIPPQYAIKVLDELTDGKAIISTGVGQHQMWAAQFYNYKKPRQWLSSGGLGAMGFGLPAAIGASVANPDAIVVDIDGDGSFIMNVQELATIRVENLPVKVLLLNNQHLGMVMQWEDRFYKANRAHTFLGDPAQEDEIFPNMLLFAAACGIPAARVTKKADLREAIQTMLDTPGPYLLDVICPHQEHVLPMIPSGGTFNDVITEGDGRIKY
B2: W574L: Arabidopsis thaliana W574L-mutant ALS expressed in Escherichia coli, crude protein extract (protein, UniProt P17597 56-670, looked up, variant W574L)
Acetolactate synthase, …: B1 Acetolactate synthase, … with S142P, W519L
B3: S653N: Arabidopsis thaliana S653N-mutant ALS expressed in Escherichia coli, crude protein extract (protein, UniProt P17597 56-670, looked up, variant S653N)
Acetolactate synthase, …: B1 Acetolactate synthase, … with S142P, S598N

Assays:
[1] = system: spring oilseed rape variety ABILITY; experiment: Herbicide tolerance in the field, visible phytotoxicity; assay type: in vivo, Brassica napus; conditions: ABILITY, field, 18 days after application, 0%=no phytotoxic effects, 100%=all plants killed
Description: (§1) Seeds of spring oilseed rape homozygous for HETO108 and HETO121 were sown in a field according to typical practical agricultural methods. The registered spring oilseed rape variety ABILITY served as a comparison. All plants were cultivated up to BBCH stage 14 (four true leaves of the oilseed rape plants). Afterwards, the herbicides mentioned in table 2 have been applied to the oilseed rape plants by using specific spray equipment for small plot applications. The water amount used was 200 L/ha.

[2] = system: spring oilseed rape homozygous for HETO108 and HETO121; experiment: as above; assay type: in vivo, Brassica napus; conditions: HETO108-HETO121, field, 18 days after application, 0%=no phytotoxic effects, 100%=all plants killed
Description: as §1

[3] = system: ALS enzymes in leaves of Brassica lines homozygous for HETO108, HETO121 or both; experiment: ALS enzyme activity in leaves; assay type: biochemical, Brassica napus; conditions: FIG. 3
Method: (§2) The inhibitory effect of ALS inhibiting herbicides on ALS enzymes encoded by the different mutant AHAS alleles was tested in leaf material essentially as described by Shimizu et al, 2008, Plant Physiol. 147:1976.

[4] = system: ALS enzyme in leaves of wild-type Brassica lines; experiment: ALS enzyme activity in leaves; assay type: biochemical, Brassica napus; conditions: wild-type leaves (row IV) compared with mutant lines (rows I-III), FIG. 3
Method: as §2

[5] = molecular target: T1, Arabidopsis thaliana wild-type ALS (Arabidopsis thaliana, UniProt P17597, E575Q); experiment: biochemical; conditions: measured; crude extract of E. coli expressed enzyme; read-out: pI50 WT (converted)
T1 construct: vector-encoded N-terminal fusion of pET-32a(+) (Trx/His/S tag by own knowledge); made in house; host or cells: Escherichia coli AD494
Method: (§3) Bacteria were grown at 37° C. in LB-medium containing 100 mg/1 carbenicillin and 25 mg/1 canamycin, induced with 1 mM isopropyl-β-D-thiogalactopyranoside at an OD600 of 0.6, cultivated for 16 hours at 18° C. and harvested by centrifugation. Bacterial pellets were resusupended in 100 mM sodium phosphate buffer pH 7.0 containing 0.1 mM thiamine-pyrophosphate, 1 mM MgCl2, and 1 μM FAD at a concentration of 1 gram wet weight per 25 ml of buffer and disrupted by sonification. The crude protein extract obtained after centrifugation was used for ALS activity measurements.
(§4) Assays were initiated by adding enzyme and terminated after 75 min incubation at 30° C. by the addition to 40 μl 0.5 M H2SO4. […] Reaction velocities were tiffed to the Michalis-Menten equation with the XLFit curve fitting program.

[6] = molecular target: T2, Arabidopsis thaliana P197S-mutant ALS (Arabidopsis thaliana, UniProt P17597, E575Q/P197S); experiment: biochemical; conditions: for Resistance Factor P197S: relative to WT, from measured pI50
T2 construct: vector-encoded N-terminal fusion of pET-32a(+) (Trx/His/S tag by own knowledge); made in house; host or cells: Escherichia coli AD494
Method: as §3, §4

[7] = molecular target: T3, Arabidopsis thaliana W574L-mutant ALS (Arabidopsis thaliana, UniProt P17597, E575Q/W574L); experiment: biochemical; conditions: for Resistance Factor W574L: relative to WT, from measured pI50
T3 construct: vector-encoded N-terminal fusion of pET-32a(+) (Trx/His/S tag by own knowledge); made in house; host or cells: Escherichia coli AD494
Method: as §3, §4

[8] = molecular target: T4, Arabidopsis thaliana S653N-mutant ALS (Arabidopsis thaliana, UniProt P17597, E575Q/S653N); experiment: biochemical
T4 construct: vector-encoded N-terminal fusion of pET-32a(+) (Trx/His/S tag by own knowledge); made in house; host or cells: Escherichia coli AD494
Method: as §3, §4

[9] = molecular target: T5, mixture of P197S and W574L ALS enzymes (Arabidopsis thaliana, UniProt P17597); assay type: biochemical; conditions: for Resistance Factor P197S & W574L: relative to WT, calculated
T5 construct: crude E. coli extract was used
Method: as §4
(§5) To characterize the response of a mixture of two different ALS enzymes to a given ALS inhibitor the following assumptions were made: • a inhibition is competitive and reversible • b. in the absence of inhibitor, equal activities of the ALS (mutant) enzymes 1 and 2 are present
(§6) Using experimentally determined pI50-values for various ALS-inhibiting herbicides, enzyme activities at different inhibitor concentrations were calculated (see Theory) for each ALS enzyme. Total ALS activity at any given inhibitor concentration is the sum of the activity of (mutant) enzyme 1 and (mutant) enzyme 2. If the experimentally determined pI50-value was <4, pI50=3.0 was used for the calculations. If the calculated pI50-value was 3.0, the pI50 was redefined as <4.

[10] = molecular target: T6, mixture of S653N and W574L ALS enzymes (Arabidopsis thaliana, UniProt P17597); assay type: biochemical; conditions: for Resistance Factor S653N & W574L: relative to WT, calculated
T6 construct: crude E. coli extract was used
Method: as §4, §5, §6

[11] = Kinetic parameters of enzymatic activity of AHAS mutants; assay type: biochemical, Arabidopsis thaliana; conditions: pyruvate varied 0-120 mM
Method: as §3, with “The coding sequences of the Arabidopsis thaliana wild-type and P197S-, W574L-, and S653N-mutant ALS genes were cloned into Novagen pET-32a(+) vectors and the vectors transformed into Escherichia coli AD494 according to the instructions of the manufacturer. Bacteria were” for “Bacteria were”
ALS assays were carried out in 96-well microtiter plates using a modification of the procedure described by Ray (1984), Plant Physiol 75:827-831. The reation mixture contained 20 mM potassium phosphate buffer pH 7.0, 20 mM sodium pyruvate, 0.45 mM thiamine-pyrophosphate, 0.45 mM MgCl2, 9 μM FAD, ALS enzyme and various concentrations of ALS inhibitors in a final volume of 90 μl. Assays were initiated by adding enzyme and terminated after 75 min incubation at 30° C. by the addition to 40 μl 0.5 M H2SO4. […] The pI50 values measured for the different mutant AHAS proteins and calculated for the mixtures of two different AHAS enzymes are shown in Table 3. […] Reaction velocities were tiffed to the Michalis-Menten equation with the XLFit curve fitting program.

[12] = Brassica napus, topical, 432 h, AI dose rate 50 gai/ha, read-out: % phytotox
[13] = calculated for a mixture of equal activities of the two enzymes, pI50=3.0 used where measured <4

Row | Molecule | inhibition of ALS enzyme activity in leaves [4] | Resistance Factor P197S [6] | Resistance Factor W574L [7] | Resistance Factor P197S & W574L [9] | Resistance Factor S653N & W574L [10] | Km [11] [mM] | Vmax [11] | other results
1 | COc1cc(OC)nc(NC(=O)NS(=O)(=O)c2cc(NC=O)ccc2C(=O)N(C)C)n1 [Foramsulfuron, foramsulfuron] | inhibited at lower concentrations of the herbicides than in leaves comprising the mutant AHAS alleles | 16 | 7943 | 398 | 316 | – | – | pest or weed control at 50 g/ha [1, 12]: 99%; pest or weed control at 50 g/ha [2, 12]: 28%; tolerance of ALS activity in leaves by mutation ([3]; P197S (row II) compared with W574L (row III) and both (row I)): the tolerance in lines with the P197S mutation (row II) is lower than the tolerance in lines with the W574L mutation (row III) and with both the P197S and W574L mutation (row I); IC50 [5]: 6.31 nM; IC50 ([6]; measured, crude extract of E. coli expressed enzyme, read-out: pI50 P197S (converted)): 100 nM; IC50 ([7]; measured, crude extract of E. coli expressed enzyme, read-out: pI50 W574L (converted)): 50100 nM; IC50 ([8]; measured, crude extract of E. coli expressed enzyme, read-out: pI50 S653N (converted)): 63.1 nM; Resistance Factor S653N ([8]; relative to WT, from measured pI50): 10; pI50 P197S & W574L [9, 13]: 5.6; pI50 S653N & W574L [10, 13]: 5.7
2 | COC(=O)c1csc(C)c1S(=O)(=O)NC(=O)n1nc(OC)n(C)c1=O [Thiencarbazone-methyl, thiencarbazone-methyl] | inhibited at lower concentrations of the herbicides than in leaves comprising the mutant AHAS alleles | 1259 | 1259 | 1259 | 316 | – | – | % phytotox ([1]; AI dose rate 30 gai/ha): 100%; % phytotox ([2]; AI dose rate 30 gai/ha): 3%; herbicide tolerance of ALS activity in leaves, TCM compared with FS ([3]; mutant lines (rows I-III)): the herbicide tolerance is higher for TCM than for FS
3 | B1 | – | – | – | – | – | 5.5 ± 0.8 | 50.0 ± 6.1 ΔE/min mg | –
4 | B2 | – | – | – | – | – | 6.9 ± 0.2 | 54.4 ± 2.8 ΔE/min mg | –
5 | B3 | – | – | – | – | – | 5.8 ± 0.4 | 32.0 ± 1.4 ΔE/min mg | –
